Laboratory results from patent US4879300A, “Novel piperidine derivatives” (Dr. Lo. Zambeletti S.p.A., priority 1986, dated 1989).
Where two headings read alike, the source gives them in different places.

Legend:
mice = assay: Mouse tail-flick test (analgesic activity); assay type: in vivo, mouse (male Charles River)
μ receptor = μ receptor (Cavia porcellus, UniProt A0ACM8Q262); assay: Receptor binding to μ sites (3H-DAGO, guinea pig brain homogenate); conditions: 25° C., 40 min, read-out: Receptor binding μ (kj)
Method: (§1) Radio receptor binding to μ and K sites is performed on fresh guinea pig brain homogenate prepared according to Kosterlitz. (1981).
(§2) Whole brain without cerebellum is homogenized in 50 mM, Tris-buffer (pH 7.4 at 0° C.) and centrifuged at 49,000 ×g×10 min.
(§3) The pellet is then resuspended in the same buffer, incubated at 37° C. for 45 min. and centrifuged again.
(§4) 1.9 ml of the final homogenate (1:100 in Tris-pH 7.4, 0° C.) is used for the binding assay.
Binding to μ sites (Magnan J., 1982)
^3 H [D-Ala^2, MePhe^4, Gly-ol^5 ] Enkephalin (^3 H--DAGO), an enkephalin analogue that binds selectively to μ receptor, is added to the biological substrate and incubated at 25° C. for 40 min., filtered through Whatman GF-C and washed with ice-cold Tris-buffer.
The filters are then dryed, solubilized in Filtercount and the radioactivity monitored. Non specific binding is determined in the presence of 10^-6 M Naloxone.
(§5) For the calculation of the kinetic parameters of the binding of labelled and unlabelled ligands, the equilibrium dissociation constant (KD), the inhibition constant (Ki) and the maximum number of binding sites (B max) are determined from saturation curves and competition experiments (Hill 1910; Scatchard 1949; Cheng and Prusoff 1973; Gillan et al. 1980).
A concentration of radioligand near KD is used in the binding assays evaluating our compounds.

[1] = molecular target: T1, K receptor (Kappa opioid receptor) (Cavia porcellus, UniProt P41144); assay: Receptor binding to K sites (tritiated Ethylketocyclazocine, guinea pig brain homogenate); conditions: tritiated Ethylketocyclazocine with 100 nM DADLE and 100 nM DAGO, 25° C., 40 min, read-out: Receptor binding k (kj)
T1 construct: fresh guinea pig brain homogenate; from tissue; host or cells: guinea pig whole brain without cerebellum, homogenate
Method: as §1, §2, §3, §4
Binding to K sites (Magnan J., 1982)
The binding of tritiated Ethylketocyclazocine to brain homogenate is measured the in presence of 100 nanomolar D-Ala-D-LeuEnkephalin (DADLE) and 100 nanomolar DAGO, added to saturate the δ and μ opioid receptors respectively.
Final homogenate with solutions of the cold ligand and of the labelled ligand is incubated for 40 min. at 25° C., filtered through Whatman GF/C glass filter discs and washed.
The radioactivity bound to the filters is counted by liquid scintillation spectrophotometry.
MR 2266.500 nM is utilized to determine the saturable binding.
as §5, with “1980). […]” for “1980).”

[2] = sc, 0.5 h, s.c., reaction time recorded 30 min after dosing, % mice doubling initial time, read-out: Mouse tail-flick ED50 (s.c.)

Chain of μ receptor (A0ACM8Q262 1-400): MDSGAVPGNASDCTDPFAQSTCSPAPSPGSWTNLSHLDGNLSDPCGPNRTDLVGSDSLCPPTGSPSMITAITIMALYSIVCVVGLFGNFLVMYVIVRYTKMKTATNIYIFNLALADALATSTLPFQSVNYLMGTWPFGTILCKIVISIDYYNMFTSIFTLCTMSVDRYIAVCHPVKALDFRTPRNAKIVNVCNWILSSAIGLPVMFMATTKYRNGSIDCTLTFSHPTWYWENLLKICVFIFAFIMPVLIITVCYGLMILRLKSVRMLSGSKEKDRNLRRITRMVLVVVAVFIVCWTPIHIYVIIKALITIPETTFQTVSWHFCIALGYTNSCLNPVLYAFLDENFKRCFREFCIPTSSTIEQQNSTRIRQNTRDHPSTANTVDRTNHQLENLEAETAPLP
T1 sequence (P41144 whole entry): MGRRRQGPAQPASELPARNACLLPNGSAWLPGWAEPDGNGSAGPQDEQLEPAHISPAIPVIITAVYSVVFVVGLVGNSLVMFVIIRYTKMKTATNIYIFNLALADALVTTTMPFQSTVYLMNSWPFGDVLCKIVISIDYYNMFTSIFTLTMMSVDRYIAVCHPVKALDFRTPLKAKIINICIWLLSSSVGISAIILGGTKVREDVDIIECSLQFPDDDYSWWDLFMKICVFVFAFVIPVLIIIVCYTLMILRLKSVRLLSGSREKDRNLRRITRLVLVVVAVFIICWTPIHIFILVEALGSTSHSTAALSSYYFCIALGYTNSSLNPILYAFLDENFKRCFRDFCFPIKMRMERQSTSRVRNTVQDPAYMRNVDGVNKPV

Structure (SMILES) | ED50 (mice; [2]) | ED50 (mice; po, read-out: Mouse tail-flick ED50 (p.o.)) | Ki (μ receptor) | Ki [1]
CC(C1CCCCN1C(=O)Cc1ccc(Cl)c(Cl)c1)N1CCCC1 (single isomer, unassigned; diastereoisomer b) [Example 2, 1-(3,4-dichlorophenylacetyl)-2-[1-(1-pyrrolidinyl)ethylpiperidine]--Diastereoisomer B] | 4.12 mg/kg |  |  | 
CC(C1CCCCN1C(=O)Cc1ccc(Cl)c(Cl)c1)N(C)C.Cl (single isomer, unassigned; diastereoisomer b) [Example 4, 1-(3,4-dichlorophenylacetyl)-2-(1-dimethylaminoethyl) piperidine hydrochloride--Diastereoisomer B] | 0.41 mg/kg | 0.75 mg/kg | 913 nM | 2.3 nM
